In experiment [1] the target is Bacillus subtilis 168 formate dehydrogenase YjgCD heterodimer, wild type (6his-YjgC, SEQ ID NO: 1; YjgD, SEQ ID NO: 3) (Bacillus subtilis, UniProt O34720). Particulars: formate oxidation, benzyl viologen as artificial electron acceptor, 25 mM CHES pH 10, 25°C. The procedure: FDH activity was determined using an Avaspec-2048L spectrometer (Avantes), inside an anaerobic glovebox filled with an atmosphere of 100% N2. The experiments were carried out at room temperature (25°C) with stirring.
For formate::benzyl viologen OR measurements, the reduction of 17.5 mM benzyl viologen (BV) was monitored at 600 nm (ε600 nm BV^+ = 7.0945 mM^-1 cm^-1) in 25 mM CHES pH 10 after addition of 50 mM sodium formate. One unit of oxidizing activity is defined as the amount of FDH capable of oxidizing 1 µmol of formate par min per mg of enzyme.
First the yjgCD operon was expressed under the control of an inducible promoter and the YjgC protein to which a 6-histidine tag was added at the N-terminus was purified.

Experiment [2] addresses T1, YjgC 6his-tagged in N-terminal (His-YjgC), Bacillus subtilis 168 (Bacillus subtilis 168, UniProt O34720 1-985).
T1 construct: Expressed from the yjgCD operon under a xylose inducible promoter in B. subtilis strain 4088 and purified on Ni-NTA; Carries Mo-bisPGD and Fe-S cofactors; also called 6his-YjgC; catalytic subunit of YjgCD; not shown: N-terminal 6-his tag followed by a TEV cleavage site
T1 sequence: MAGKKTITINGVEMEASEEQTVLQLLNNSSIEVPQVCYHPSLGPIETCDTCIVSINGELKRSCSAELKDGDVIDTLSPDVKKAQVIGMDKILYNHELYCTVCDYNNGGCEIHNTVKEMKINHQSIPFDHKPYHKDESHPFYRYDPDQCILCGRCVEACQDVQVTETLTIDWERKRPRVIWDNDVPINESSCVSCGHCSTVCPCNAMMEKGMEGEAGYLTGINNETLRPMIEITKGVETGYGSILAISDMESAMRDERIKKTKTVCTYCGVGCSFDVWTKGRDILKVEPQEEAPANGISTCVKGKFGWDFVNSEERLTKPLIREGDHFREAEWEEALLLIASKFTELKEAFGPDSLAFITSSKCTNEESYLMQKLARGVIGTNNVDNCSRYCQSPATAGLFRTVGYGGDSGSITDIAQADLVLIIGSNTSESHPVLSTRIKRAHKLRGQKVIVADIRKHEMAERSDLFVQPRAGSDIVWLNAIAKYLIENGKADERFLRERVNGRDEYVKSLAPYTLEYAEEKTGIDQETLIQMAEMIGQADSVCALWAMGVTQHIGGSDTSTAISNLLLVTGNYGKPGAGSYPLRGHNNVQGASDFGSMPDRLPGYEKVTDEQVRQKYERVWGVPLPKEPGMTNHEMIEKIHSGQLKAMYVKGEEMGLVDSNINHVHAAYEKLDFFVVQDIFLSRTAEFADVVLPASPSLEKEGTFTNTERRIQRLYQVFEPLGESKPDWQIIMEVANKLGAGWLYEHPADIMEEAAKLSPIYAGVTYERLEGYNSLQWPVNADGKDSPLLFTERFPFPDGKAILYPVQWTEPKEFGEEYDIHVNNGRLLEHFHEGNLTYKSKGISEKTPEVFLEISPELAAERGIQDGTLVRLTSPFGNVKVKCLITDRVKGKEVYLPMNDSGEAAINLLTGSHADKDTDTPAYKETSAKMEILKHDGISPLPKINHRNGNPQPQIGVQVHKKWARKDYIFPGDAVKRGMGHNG
The experiment can be described thus: Ni-NTA affinity purification of His-YjgC, Coomassie-stained SDS-PAGE.

This is an account of results in patent EP4116414A1 (Centre National de la Recherche Scientifique, dated 2023).

The term Km denotes the substrate concentration at which the rate is half of its maximum. formate: in experiment [1] (anaerobic, YjgCD heterodimer MW 132 kDa), the Kcat is given as 96,1 ± 4 s^-1. Further, the Km in experiment [1] (read-out: KM formate, anaerobic (100% N2)) was 5.1 mM.

B1: YjgD protein of Bacillus subtilis 168 (other)
chain: MAKAIKRIQKIEVTEEDQRKRDLREIEDALIDHKEAILETLHMLGHMNERGVLPLLRGLFGQGDKVLDILVKKADTEETANTLKNLLLLFGTLGMLDVKQLEPLILKVNAGVASAVEQKNSEEKTGYFDIIRSLKDPEINKSITLLFSFLKGMGQDTKELERTTQPPEHQKHHQEPREKRGMNKRD
notes: Untagged and co-expressed with His-YjgC from the yjgCD operon; Predicted monomeric mass 21.3 kDa; also called partner subunit of YjgCD
For B1, the binding result in experiment [2] is given as “binds”.
